From ChEMBL document CHEMBL1136831, “CRF ligands via Suzuki and Negishi couplings of 3-pyridyl boronic acids or halides with 2-benzyloxy-4-chloro-3-nitropyridine” (Bioorg Med Chem Lett, 2003)

biological target: Corticotropin releasing factor receptor (Rattus norvegicus, UniProt P47866+P35353); assay: Binding affinity at Corticotropin releasing factor receptor of rat cortical homogenates.

Row | SMILES | Ki
1 | CCc1nc2c(-c3ccc(OC)nc3C(F)(F)F)ccnc2n1C(C)C1CCC1 (stereo not drawn) | 0.8 nM
2 | CCCC(C)n1c(CC)nc2c(-c3ccc(OCCO)nc3C(F)(F)F)ccnc21 (stereo not drawn) | 10.1 nM
3 | CCc1nc2c(-c3ccc(OC)nc3C(F)(F)F)ccnc2n1C(C)CC (stereo not drawn) | 0.7 nM
4 | CCCC(C)n1c(CC)nc2c(-c3cnc(OC)cc3C)ccnc21 (stereo not drawn) | 17.1 nM
5 | CCCC(C)n1c(CC)nc2c(-c3ccc(OC)nc3C)ccnc21 (stereo not drawn) | 1.1 nM
6 | CCCC(C)n1c(CC)nc2c(-c3ccc(Cl)nc3C)ccnc21 (stereo not drawn) | 6.6 nM
7 | CCCC(C)n1c(CC)nc2c(-c3ccc(O)nc3C)ccnc21 (stereo not drawn) | > 10000 nM
8 | CCc1nc2c(-c3ccc(OC)nc3C(F)(F)F)ccnc2n1C(CC)C1CC1 (stereo not drawn) | 0.7 nM
9 | CCCC(C)n1c(CC)nc2c(-c3ccc(O)nc3C(F)(F)F)ccnc21 (stereo not drawn) | 602 nM
10 | CCc1nc2c(-c3ccc(OC)nc3C)ccnc2n1C(C)CC (stereo not drawn) | 9.2 nM
11 | CCc1nc2c(-c3ccc(OC)nc3C(F)(F)F)ccnc2n1C(CC)CCOC (stereo not drawn) | 1.6 nM

More lines, now with the values ahead:

Row | Ki | SMILES
12 | 7.5 nM | CCc1nc2c(-c3ccc(N(C)C)nc3C)ccnc2n1C(CC)C1CC1 (stereo not drawn)
13 | 0.5 nM | CCc1nc2c(-c3ccc(OC)cc3C)ccnc2n1C(CC)C1CC1 (stereo not drawn)
14 | 2.1 nM | CCc1nc2c(-c3ccc(OC)nc3C)ccnc2n1C(C)C1CCC1 (stereo not drawn)
15 | 1.8 nM | CCc1nc2c(-c3ccc(OC)nc3C)ncnc2n1C(C1CC1)C1CC1
16 | 3.3 nM | CCc1nc2c(-c3ccc(Cl)nc3C)ccnc2n1C(CC)C1CC1 (stereo not drawn)
17 | 2 nM | CCc1nc2c(-c3ccc(OC)nc3C)ccnc2n1C(C)C1CC1 (stereo not drawn)
18 | 1.9 nM | CCc1nc2c(-c3ccc(OC)cc3C)ncnc2n1C(C1CC1)C1CC1
